For one series, the target named is T1, α7 nAChR (Rattus norvegicus, UniProt Q05941).
T1 construct: expressed in transfected cells
Description: [3H]-epibatidine radioligand competition binding assay. The following applies: competition against [3H]-epibatidine. As for the experimental part:
(§1) Stably transfected cell lines, tissue culture conditions, membrane preparation procedures and binding assays were described previously. Briefly, cultured cells at >80% confluence were removed from their flasks (80 cm^2) with a disposable cell scraper and placed in 10 mL of 50 mM Tris.HCl buffer (pH 7.4, 4° C.). The cell suspension was centrifuged at 10,000×g for 5 min and the pellet was collected. The cell pellet was then homogenized in 10 mL buffer with a polytron homogenizer and centrifuged at 36,000 g for 10 min at 4° C. The membrane pellet was resuspended in fresh buffer, and aliquots of the membrane preparation were used for binding assays. The concentration of [^3H]-epibatidine used was ˜500 pM for competition binding assays. […] Bound and free ligands were separated by vacuum filtration through Whatman GF/C filters treated with 0.5% polyethylenimine. The filter-retained radioactivity was measured by liquid scintillation counting. Specific binding was defined as the difference between total binding and nonspecific binding. Data from competition binding assays were analyzed using Prism 5 (GraphPad Software, San Diego, Calif.).
(§2) The in vitro binding affinities of the new ligands were measured for defined receptor subtypes (α2β2, α2β4, α3β2, α3β4, α4β2, α4β4, α6β2, α6β4, and α7) expressed in stably transfected cell lines. [^3H]Epibatidine ([^3H]EB) binds to the agonist recognition site of all of the defined receptor subtypes with high affinities. Rat forebrain homogenates were included to allow comparison between the heterologous and native α4β2 and α7 nAChRs. See FIG. 18 for binding affinity values (Ki) of the ligands at the three major nAChR subtypes (α3β4, […], and α7).
(§3) The binding affinities of all compounds synthesized for the receptor subtypes were examined in binding competition studies against [^3H]-epibatidine.
In general terms: Loss of bound radioactivity is the signal in a displacement assay; it reports binding, not function.

The target of a further series is T2, α3β4 nAChR (Rattus norvegicus, UniProt P04757+P12392).
T2 construct: expressed in transfected cells; host or cells: HEK 293 (KXα3β4R2)
Described as above. As for the experimental part: as §1, §2, §3

The next series has as its target T3, α4β2 nAChR (Rattus norvegicus, UniProt P09483+P12390).
T3 construct: expressed in transfected cells
The description is as above. As for the experimental part: as §1, §2, §3

Another series deals with T4, human α4β2 nAChRs (Homo sapiens, UniProt P17787+P43681).
T4 construct: expressed in transfected cells
In words: 86Rb+ efflux assay in stably transfected cells. In kind it is cell-based. The following applies: for IC50: 10 min pre-treatment before 100 μM (−)-nicotine, read-out: IC50(10′) α4β2 (desensitization potency). As for the experimental part: (§4) The cell line expressing rat α3β4 nAChRs, KXα3β4R2, was established previously by stably transfecting HEK 293 cells with combinations of rat nAChR α3 and β4 subunit genes. The cell line expressing human α4β2 nAChRs, YXα4β2H1, were established recently (Tuan et al., 2012, manuscript in preparation). These cell lines were maintained in minimum essential medium (MEM) supplemented with 10% fetal bovine serum, 100 units/mL penicillin G, […] streptomycin and selective antibiotics at 37° C. with 5% CO2 in a humidified incubator. Tissue culture medium and antibiotics were obtained from Invitrogen Corporation (Carlsbad, Calif.), unless otherwise stated. Fetal bovine serum and horse serum were provided by Gemini Bio-Products (Woodland, Calif.).
(§5) Functional properties of compounds at nAChRs expressed in the transfected cells were measured using ^86Rb^+ efflux assays as described previously. In brief, cells were plated into 24-well plates coated with poly-D-lysine. The plated cells were grown at 37° C. for 18 to 24 hour to reach 85-95% confluence. The cells were then incubated in growth medium (0.5 mL/well) containing ^86Rb^+ (2 μCi/mL) for 4 hour at 37° C. The loading mixture was then aspirated, and the cells were washed four times with 1 mL buffer (15 mM HEPES, 140 mM NaCl, 2 mM KCl, 1 mM MgSO4, 1.8 mM CaCl2, 11 mM Glucose, pH 7.4). One mL of buffer with or without compounds to be tested was then added to each well. After incubation for 2 min, the assay buffer was collected for measurements of ^86Rb^+ released from the cells. Cells were then lysed by adding 1 mL of 100 mM NaOH to each well, and the lysate was collected for determination of the amount of ^86Rb^+ that was in the cells at the end of the efflux assay. Radioactivity of assay samples and lysates was measured by liquid scintillation counting. Total loading (cpm) was calculated as the sum of the assay sample and the lysate of each well. The amount of ^86Rb^+ efflux was expressed as a percentage of ^86Rb^+ loaded. […] For obtaining EC50 and Emax values, stimulation curves were constructed in which 8 different concentrations of a ligand were included in the assay. […] EC50, Emax and IC50(10′) values were determined by nonlinear least-squares regression analyses (GraphPad, San Diego, Calif.).
(§6) Functional properties of the new ligands were determined by ^86Rb^1 efflux assays in cells expressing α3β4 and α4β2 nAChR subtypes. Functional activity of each new ligand was measured in terms of its agonism, antagonism and desensitization ability.
(§7) Agonist activity of each of the ligands was tested at eight concentrations. […] The full concentration-effect curves generated potency (EC50) and efficacy (Emax) of each ligand.
(§8) Though the ^86Rb^+ efflux assays were the main methodology used to determine functional properties, whole-cell current measurements were also used to verify the key experiments.

The next series addresses T5, rat α3β4 nAChRs (Rattus norvegicus, UniProt P04757+P12392).
T5 construct: expressed in transfected cells; host or cells: HEK 293 (KXα3β4R2)
In words: 86Rb+ efflux assay in stably transfected cells. The note with it: for IC50: 10 min pre-treatment before 100 μM (−)-nicotine, read-out: IC50(10′) α3β4 (desensitization potency); for agonist activity at α3β4 nAChRs: 86Rb+ efflux, rat α3β4. In kind it is cell-based. As for the experimental part: as §4, §5, §6, §7, §8

The conditions of series [1]: human, in vivo; cited from earlier work.
Series [2] concerns nicotine self-administration. The following applies: subcutaneous, previous studies; cited from earlier work.
The mark [3] stands for this setting: competition against [3H]-epibatidine, stably transfected cell membranes, read-out: Ki α3β4.
[4] abbreviates: competition against [3H]-epibatidine, stably transfected cell membranes, read-out: Ki α4β2.
Where [5] appears, read: preincubated with the cells for 10 min.

Usually Ki stands for a measure of affinity in units of concentration, obtained from inhibition or displacement. For orientation: IC50 means the midpoint of a concentration-inhibition curve.

Each structure is given as a SMILES string. Like-named read-outs stand apart in the source and are kept apart here. Some results are limits rather than exact numbers.

As to `Fc1cccc(C#Cc2cncc(OC[C@@H]3CCN3)c2)c1` [VMY-2-109, (S)-3-(azetidin-2-ylmethoxy)-5-((3-fluorophenyl)ethynyl)pyridine], the Ki at α7 nAChR was determined as 0.72 µM; on α3β4 nAChR (setting [3]), 0.52 µM; at α4β2 nAChR, 0.032 nM. Besides, at human α4β2 nAChRs, the half-maximal inhibitory concentration (IC50) is 0.013 µM.
As for `CN1CCCC1c1cccnc1` (centres unmarked) [nicotine, reference compound], the “inhibition of nicotine activation of α4β2 receptors” value (“inhibition” below) on human α4β2 nAChRs is on record as “inhibited”.
As for `Clc1cccc(C#Cc2cncc(OC[C@@H]3CCN3)c2)c1` [VMY-2-127, (S)-3-(azetidin-2-ylmethoxy)-5-((3-chlorophenyl)ethynyl)pyridine], the inhibitory constant (Ki) turned out to be 0.48 µM on α7 nAChR, 3.4 µM on α3β4 nAChR (setting [3]) and 0.093 nM at α4β2 nAChR.
As for `Fc1ccc(C#Cc2cncc(OC[C@@H]3CCN3)c2)cc1` [VMY-2-101, (S)-3-(azetidin-2-ylmethoxy)-5-((4-fluorophenyl)ethynyl)pyridine], the inhibitory constant (Ki) at α7 nAChR was 2 µM; on α3β4 nAChR (setting [3]) it was 0.65 µM; at α4β2 nAChR, 0.083 nM. The half-maximal inhibitory concentration (IC50) on human α4β2 nAChRs was 0.008 µM.
On to `Fc1cc(F)cc(C#Cc2cncc(OC[C@@H]3CCN3)c2)c1` [VMY-2-113, (S)-3-(azetidin-2-ylmethoxy)-5-((3,5-difluorophenyl)ethynyl)pyridine], for which the Ki at α7 nAChR turned out to be 1.8 µM; at α3β4 nAChR it was 1.4 µM; at α4β2 nAChR, 0.05 nM.
Consider `Cc1cccc(C#Cc2cncc(OC[C@@H]3CCN3)c2)c1` [VMY-2-123, (S)-3-(azetidin-2-ylmethoxy)-5-(m-tolylethynyl)pyridine], for which the Ki at α7 nAChR worked out at 0.2 µM; at α3β4 nAChR (setting [3]), 4 µM; at α4β2 nAChR, 0.046 nM. The “selectivity for α4β2 receptors over α3β4 receptors (Ki ratio)” value at α4β2 nAChR is listed as 87,000 times.
As for `C(#Cc1cncc(OCC2CCC2)c1)c1ccccc1` [VMY-2-161, 3-(cyclobutylmethoxy)-5-(phenylethynyl)pyridine], the inhibition constant (Ki) at α7 nAChR was 410 µM; at α3β4 nAChR (setting [3]), 1300 µM; on α4β2 nAChR (setting [4]) it was 160000 nM. Also, the IC50 was 35 µM on human α4β2 nAChRs and greater than 100 µM at rat α3β4 nAChRs.
Take `c1cnc2cc3c(cc2n1)[C@@H]1CNC[C@H]3C1` [varenicline, reference compound]: the “agonist activity at α4β2 receptors” value on human α4β2 nAChRs (86Rb+ efflux, human α4β2) is listed as “partial agonist activity”. For the same molecule, the “inhibition” value on human α4β2 nAChRs (setting [5]) is on record as “inhibited”. Also, the “agonist activity at α3β4 nAChRs” value on rat α3β4 nAChRs was “near-full agonist activity”. For the same molecule, in series [1], the “participants in clinical trials who reported nausea” value was roughly 30%, the “participants in clinical trials who reported vomiting” value was 18% and the “percentage of subjects who remained smoke-free for 12 months following treatment” value was roughly 22%.
As to `CN1CC[C@H]1COc1cncc(C#Cc2ccccc2)c1` [VMY-2-205, (S)-3-((1-methylazetidin-2-yl)methoxy)-5-(phenylethynyl)pyridine], the inhibitory constant (Ki) at α7 nAChR turned out to be 7.7 µM; at α3β4 nAChR (setting [3]), 40 µM; at α4β2 nAChR, 1.2 nM. The “binding weaker than VMY-2-95 (fold)” value on α4β2 nAChR (α4β2 binding affinity relative to (S)-N-H VMY-2-95) is roughly 25 times. The IC50 on human α4β2 nAChRs worked out at 0.37 µM; on rat α3β4 nAChRs, 22 µM.
Regarding `OCCCCC#Cc1cncc(OC[C@@H]2CCN2)c1` [Sazetidine-A, reference compound], in series [2], the “lowest effective dose reducing nicotine self-administration” value is given as 3 mg/kg. Further, the inhibition constant (Ki) at α7 nAChR is 1.6 µM; at α3β4 nAChR (setting [3]), 1.9 µM; at α4β2 nAChR (setting [4]), 0.062 nM. Also, the 50% inhibitory concentration (IC50) was 0.012 µM at human α4β2 nAChRs (listed as Saz-A), 0.0075 µM at human α4β2 nAChRs and greater than 10 µM at rat α3β4 nAChRs. Also, the “inhibition” value on human α4β2 nAChRs (setting [5]) is on record as “inhibited”. For the same molecule, the “agonist activity at α3β4 nAChRs” value at rat α3β4 nAChRs is listed as “does not show agonist activity”. For the same molecule, the “effect on the function of rat α3β4 nAChRs” value at rat α3β4 nAChRs (concentrations up to 10 μM) is “had no effect”.
With `CN(C)c1cc(F)cc(C#Cc2cncc(OC[C@@H]3CCN3)c2)c1` [VMY-2-131, (S)-3-((5-(azetidin-2-ylmethoxy)pyridin-3-yl)ethynyl)-5-fluoro-N,N-dimethylaniline], the inhibitory constant (Ki) was determined as 0.25 µM at α7 nAChR, 1 µM on α3β4 nAChR (setting [3]) and 0.031 nM at α4β2 nAChR.
Take `FC(F)(F)c1cccc(C#Cc2cncc(OC[C@@H]3CCN3)c2)c1` [VMY-2-117, (S)-3-(azetidin-2-ylmethoxy)-5-((3-(trifluoromethyl)phenyl)ethynyl)pyridine]: the Ki on α7 nAChR is 1.3 µM; on α3β4 nAChR (setting [3]), 1.4 µM; on α4β2 nAChR, 0.26 nM. In addition, the “selectivity for α4β2 receptors over α3β4 receptors (Ki ratio)” value at α4β2 nAChR is listed as 5,400 times.
Turning to `Fc1ccccc1C#Cc1cncc(OC[C@@H]2CCN2)c1` [VMY-2-105, (S)-3-(azetidin-2-ylmethoxy)-5-((2-fluorophenyl)ethynyl)pyridine], the Ki came to 1.1 µM on α7 nAChR, 0.58 µM at α3β4 nAChR (setting [3]) and 0.072 nM at α4β2 nAChR. Besides, at human α4β2 nAChRs, the IC50 was determined as 0.02 µM.
In the case of `CCCNCCOc1cncc(C#Cc2ccccc2)c1` [VMY-2-177, N-(2-(5-(phenylethynyl)pyridin-3-yloxy)ethyl)propan-1-amine], the Ki came out at 48 µM on α7 nAChR, 850 µM on α3β4 nAChR (setting [3]) and 1100 nM on α4β2 nAChR (setting [4]). Further, the concentration for half-maximal inhibition (IC50) at human α4β2 nAChRs came out at 15 µM; on rat α3β4 nAChRs it was 12 µM.
As for `COc1cc(F)cc(C#Cc2cncc(OC[C@@H]3CCN3)c2)c1` [VMY-2-139, (S)-3-(azetidin-2-ylmethoxy)-5-((3-fluoro-5-methoxyphenyl)ethynyl)pyridine], the figures for the Ki on α7 nAChR, on α3β4 nAChR (setting [3]) and on α4β2 nAChR were 1.5 µM, 1.3 µM and 0.076 nM, respectively.
On to `C(#Cc1cncc(OC[C@H]2CCN2)c1)c1ccccc1` [VMY-2-191, (R)-3-(azetidin-2-ylmethoxy)-5-(phenylethynyl)pyridine], for which the Ki stood at 1.6 µM at α7 nAChR, 1.7 µM on α3β4 nAChR (setting [3]) and 0.11 nM on α4β2 nAChR (setting [4]).
For the molecule `Cc1cc(F)cc(C#Cc2cncc(OC[C@@H]3CCN3)c2)c1` [VMY-2-135, (S)-3-(azetidin-2-ylmethoxy)-5-((3-fluoro-5-methylphenyl)ethynyl)pyridine], the Ki on α7 nAChR stood at 0.59 µM; on α3β4 nAChR (setting [3]), 1.1 µM; at α4β2 nAChR, 0.043 nM.

These data come from US9994548B2, “Phenyl-substituted nicotinic ligands, and methods of use thereof” (Georgetown University, priority 2011, dated 2018).
